These results are taken from US20260001928A1 (CORTERIA PHARMACEUTICALS, priority 2022, published 2026).

Usually EC50 stands for the concentration needed to bring the measured effect to its halfway point. A higher EC50 goes with weaker potency.

*1 amine or outer side, *2 acyl side, *3 side chain or, on linkers, in order; H or OH if unused. Where a SMILES comes first, the peptide text is derived from it. Where no end group is shown, it is not given here. Side-chain parts run from the residue outwards. [ ]: non-standard residue; d: D form. The star is where a group is joined. C20 diacid = O=C(O)CCCCCCCCCCCCCCCCCCC(=O)*; C18 diacid = O=C(O)CCCCCCCCCCCCCCCCC(=O)*; C16 diacid = O=C(O)CCCCCCCCCCCCCCC(=O)*; γGlu = O=C(O)[C@H](CCC(=O)[*:2])N[*:1]; C14 diacid = O=C(O)CCCCCCCCCCCCC(=O)*; NMeI = CC[C@H](C)[C@H](NC)C(=O)O; AEEA = NCCOCCOCC(=O)O; Aib = CC(C)(N)C(=O)O Where only a bound is given, the exact number is not on record here.

One test relates to human LAD2 cells. Type of test: cell-based. A digest of the protocol:
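Mast cell degranulation: cells exposed to peptides for 30 min at final concentrations from 50, 100 or 300 down to 0.1 or 0.001 μM, with 0.5% DMSO where used, in biological duplicates. β-hexosaminidase release was read with a fluorogenic 4-methylumbelliferyl substrate as supernatant/(supernatant + Triton-lysed pellet) × 100. EC50 came from a 4-parameter sigmoidal fit.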

For test [1], the target named is Rat CRF2 a (corticotropin-releasing factor receptor 2), on the A7R5 rat aortic smooth muscle cell line (rat, UniProt P47866 20-411). Briefly: cell-based or functional assay.
Chain of Rat CRF2 a (corticotropin-releasing factor receptor 2), on the A7R5 rat aortic smooth muscle cell line (P47866 20-411): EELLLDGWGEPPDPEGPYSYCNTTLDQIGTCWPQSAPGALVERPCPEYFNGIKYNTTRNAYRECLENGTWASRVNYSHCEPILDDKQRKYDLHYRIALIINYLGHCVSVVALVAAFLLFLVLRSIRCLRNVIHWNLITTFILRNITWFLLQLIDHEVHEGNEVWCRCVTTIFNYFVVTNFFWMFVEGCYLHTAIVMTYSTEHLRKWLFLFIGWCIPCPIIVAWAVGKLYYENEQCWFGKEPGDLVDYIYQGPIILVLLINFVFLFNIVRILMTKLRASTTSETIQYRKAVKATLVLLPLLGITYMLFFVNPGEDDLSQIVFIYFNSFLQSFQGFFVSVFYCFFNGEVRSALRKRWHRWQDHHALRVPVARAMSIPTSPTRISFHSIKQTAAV

In the test on human LAD2 cells, `CC[C@H](C)[C@H](NC(C)=O)C(=O)N[C@H](C(=O)N[C@@H](CC(C)C)C(=O)N[C@@H](CO)C(=O)N[C@@H](CC(C)C)C(=O)N[C@@H](CC(=O)O)C(=O)N[C@@H](C(=O)N1CCC[C@H]1C(=O)N[C@H](C(=O)N[C@@H](CCCCN)C(=O)N[C@@H](CC(C)C)C(=O)N[C@@H](CCCCNC(=O)COCCOCCNC(=O)COCCOCCNC(=O)CC[C@H](NC(=O)CCCCCCCCCCCCCCCCCCC(=O)O)C(=O)O)C(=O)N[C@@H](CCCCN)C(=O)N[C@H](C(=O)N[C@@H](CC(C)C)C(=O)N[C@@H](CC(C)C)C(=O)N[C@@H](CCC(=O)O)C(=O)N[C@@H](CCC(N)=O)C(=O)N[C@@H](CCC(=O)O)C(=O)N[C@@H](CCCCN)C(=O)N[C@@H](CCC(N)=O)C(=O)N[C@@H](CCCCN)C(=O)N[C@@H](CCCCN)C(=O)N[C@@H](CCC(N)=O)C(=O)N[C@@H](CCCNC(=N)N)C(=O)N[C@@H](CCC(=O)O)C(=O)N[C@@H](CCC(N)=O)C(=O)N[C@@H](C)C(=O)N[C@@H](CCC(=O)O)C(=O)N[C@H](C(=O)N[C@@H](CC(N)=O)C(=O)NC(C)(C)C(=O)N[C@@H](CCC(N)=O)C(=O)N[C@H](C(=O)N[C@@H](CC(C)C)C(=O)N[C@@H](C)C(=O)N[C@@H](CCC(N)=O)C(=O)N[C@H](C(N)=O)C(C)C)[C@@H](C)CC)[C@@H](C)O)[C@@H](C)CC)[C@@H](C)CC)C(C)C)C(C)C` [Cmpd 238] (Ac-IVLSLD[dV]PIKLK([AEEA-AEEA-γGlu-C20 diacid])KILLEQEKQKKQREQAETN[Aib]QILAQV-NH2) gave a half-maximal effective concentration (EC50) of 36.7 µM.

In the case of `CC[C@H](C)[C@H](NC(C)=O)C(=O)N[C@H](C(=O)N[C@@H](CC(C)C)C(=O)N[C@@H](CO)C(=O)N[C@@H](CC(C)C)C(=O)N[C@@H](CC(=O)O)C(=O)N[C@@H](C(=O)N1CCC[C@H]1C(=O)N[C@H](C(=O)N[C@@H](CCCCN)C(=O)N[C@@H](CC(C)C)C(=O)N[C@@H](CCCCNC(=O)CC[C@H](NC(=O)CC[C@H](NC(=O)CCCCCCCCCCCCCCCCCCC(=O)O)C(=O)O)C(=O)O)C(=O)N[C@@H](CCCCN)C(=O)N[C@H](C(=O)N[C@@H](CC(C)C)C(=O)N[C@@H](CC(C)C)C(=O)N[C@@H](CCC(=O)O)C(=O)N[C@@H](CCC(N)=O)C(=O)N[C@@H](CCC(=O)O)C(=O)N[C@@H](CCCCN)C(=O)N[C@@H](CCC(N)=O)C(=O)N[C@@H](CCCCN)C(=O)N[C@@H](CCC(=O)O)C(=O)N[C@@H](CCC(N)=O)C(=O)N[C@@H](CCCNC(=N)N)C(=O)N[C@@H](CCC(=O)O)C(=O)N[C@@H](CCC(N)=O)C(=O)N[C@@H](C)C(=O)N[C@@H](CCC(=O)O)C(=O)N[C@H](C(=O)N[C@@H](CC(N)=O)C(=O)NC(C)(C)C(=O)N[C@@H](CCC(N)=O)C(=O)N[C@H](C(=O)N[C@@H](CC(C)C)C(=O)N[C@@H](C)C(=O)N[C@@H](CCC(N)=O)C(=O)N[C@H](C(N)=O)C(C)C)[C@@H](C)CC)[C@@H](C)O)[C@@H](C)CC)[C@@H](C)CC)C(C)C)C(C)C` [Cmpd 241] (Ac-IVLSLD[dV]PIKLK([γGlu-γGlu-C20 diacid])KILLEQEKQKEQREQAETN[Aib]QILAQV-NH2), the concentration for a half-maximal effect (EC50) with human LAD2 cells was over 300 µM.

In turn, `CC[C@H](C)[C@H](NC)C(=O)N[C@H](C(=O)N[C@@H](CC(C)C)C(=O)N[C@@H](CO)C(=O)N[C@@H](CC(C)C)C(=O)N[C@@H](CC(=O)O)C(=O)N[C@@H](C(=O)N1CCC[C@H]1C(=O)N[C@H](C(=O)N[C@@H](CCCCN)C(=O)N[C@@H](CC(C)C)C(=O)N[C@@H](CCCCNC(=O)CC[C@H](NC(=O)CC[C@H](NC(=O)CCCCCCCCCCCCCCCCCCC(=O)O)C(=O)O)C(=O)O)C(=O)N[C@@H](CCCCN)C(=O)N[C@H](C(=O)N[C@@H](CC(C)C)C(=O)N[C@@H](CC(C)C)C(=O)N[C@@H](CCC(=O)O)C(=O)N[C@@H](CCC(N)=O)C(=O)N[C@@H](CCC(=O)O)C(=O)N[C@@H](CCCCN)C(=O)N[C@@H](CCC(N)=O)C(=O)N[C@@H](CCCCN)C(=O)N[C@@H](CCC(=O)O)C(=O)N[C@@H](CCC(N)=O)C(=O)N[C@@H](CCCNC(=N)N)C(=O)N[C@@H](CCC(=O)O)C(=O)N[C@@H](CCC(N)=O)C(=O)N[C@@H](C)C(=O)N[C@@H](CCC(=O)O)C(=O)N[C@H](C(=O)N[C@@H](CC(N)=O)C(=O)NC(C)(C)C(=O)N[C@@H](CCC(N)=O)C(=O)N[C@H](C(=O)N[C@@H](CC(C)C)C(=O)N[C@@H](C)C(=O)N[C@@H](CCC(N)=O)C(=O)N[C@H](C(N)=O)C(C)C)[C@@H](C)CC)[C@@H](C)O)[C@@H](C)CC)[C@@H](C)CC)C(C)C)C(C)C` [Cmpd 242] (H-[NMeI]VLSLD[dV]PIKLK([γGlu-γGlu-C20 diacid])KILLEQEKQKEQREQAETN[Aib]QILAQV-NH2) registered an EC50 in the test on human LAD2 cells of over 300 µM.

Turning to `CC[C@H](C)[C@H](NC(C)=O)C(=O)N[C@H](C(=O)N[C@@H](CC(C)C)C(=O)N[C@@H](CO)C(=O)N[C@@H](CC(C)C)C(=O)N[C@@H](CC(=O)O)C(=O)N[C@@H](C(=O)N1CCC[C@H]1C(=O)N[C@H](C(=O)N[C@@H](CCCCN)C(=O)N[C@@H](CC(C)C)C(=O)N[C@@H](CCCCNC(=O)CC[C@H](NC(=O)CC[C@H](NC(=O)CCCCCCCCCCCCCCCCCCC(=O)O)C(=O)O)C(=O)O)C(=O)N[C@@H](CCCCN)C(=O)N[C@H](C(=O)N[C@@H](CC(C)C)C(=O)N[C@@H](CC(C)C)C(=O)N[C@@H](CCC(=O)O)C(=O)N[C@@H](CCC(N)=O)C(=O)N[C@@H](CCC(=O)O)C(=O)N[C@@H](CCCCN)C(=O)N[C@@H](CCC(N)=O)C(=O)N[C@@H](CCCCN)C(=O)N[C@@H](CCCCN)C(=O)N[C@@H](CCC(N)=O)C(=O)N[C@@H](CCCNC(=N)N)C(=O)N[C@@H](CCC(=O)O)C(=O)N[C@@H](CCC(N)=O)C(=O)N[C@@H](C)C(=O)N[C@@H](CCC(=O)O)C(=O)N[C@H](C(=O)N[C@@H](CC(N)=O)C(=O)NC(C)(C)C(=O)N[C@@H](CCC(N)=O)C(=O)N[C@H](C(=O)N[C@@H](CC(C)C)C(=O)N[C@@H](C)C(=O)N[C@@H](CCC(N)=O)C(=O)N[C@H](C(N)=O)C(C)C)[C@@H](C)CC)[C@@H](C)O)[C@@H](C)CC)[C@@H](C)CC)C(C)C)C(C)C` [Cmpd 243] (Ac-IVLSLD[dV]PIKLK([γGlu-γGlu-C20 diacid])KILLEQEKQKKQREQAETN[Aib]QILAQV-NH2), the concentration for a half-maximal effect (EC50) with human LAD2 cells was over 300 µM.

As for `NC(N)=NCCC[C@@H](N)C(=O)N[C@@H](CCCN=C(N)N)C(=O)N1CCC[C@H]1C(=O)N1C[C@H](O)C[C@H]1C(=O)NCC(=O)N[C@@H](Cc1cccs1)C(=O)N[C@@H](CO)C(=O)N1Cc2ccccc2C[C@@H]1C(=O)N1[C@H](C(=O)N[C@@H](CCCN=C(N)N)C(=O)O)C[C@@H]2CCCC[C@@H]21` [Icatibant, reference compound], a half-maximal effect with human LAD2 cells (EC50) was put at 16.4 µM. In other words, the double-digit micromolar range.

B1: peptide of SEQ ID NO: 144 (peptide)
peptide: [NMeI]VLSLD[dV]PIKLK([γGlu-C18 diacid])KILLEQEKQKAQREQAETN[Aib]QILAQV-NH2
modifications: N-terminus assumed
SMILES: CC[C@H](C)[C@H](NC)C(=O)N[C@H](C(=O)N[C@@H](CC(C)C)C(=O)N[C@@H](CO)C(=O)N[C@@H](CC(C)C)C(=O)N[C@@H](CC(=O)O)C(=O)N[C@@H](C(=O)N1CCC[C@H]1C(=O)N[C@H](C(=O)N[C@@H](CCCCN)C(=O)N[C@@H](CC(C)C)C(=O)N[C@@H](CCCCNC(=O)CC[C@H](NC(=O)CCCCCCCCCCCCCCCCC(=O)O)C(=O)O)C(=O)N[C@@H](CCCCN)C(=O)N[C@H](C(=O)N[C@@H](CC(C)C)C(=O)N[C@@H](CC(C)C)C(=O)N[C@@H](CCC(=O)O)C(=O)N[C@@H](CCC(N)=O)C(=O)N[C@@H](CCC(=O)O)C(=O)N[C@@H](CCCCN)C(=O)N[C@@H](CCC(N)=O)C(=O)N[C@@H](CCCCN)C(=O)N[C@@H](C)C(=O)N[C@@H](CCC(N)=O)C(=O)N[C@@H](CCCNC(=N)N)C(=O)N[C@@H](CCC(=O)O)C(=O)N[C@@H](CCC(N)=O)C(=O)N[C@@H](C)C(=O)N[C@@H](CCC(=O)O)C(=O)N[C@H](C(=O)N[C@@H](CC(N)=O)C(=O)NC(C)(C)C(=O)N[C@@H](CCC(N)=O)C(=O)N[C@H](C(=O)N[C@@H](CC(C)C)C(=O)N[C@@H](C)C(=O)N[C@@H](CCC(N)=O)C(=O)N[C@H](C(N)=O)C(C)C)[C@@H](C)CC)[C@@H](C)O)[C@@H](C)CC)[C@@H](C)CC)C(C)C)C(C)C
Regarding B1, the “EC50 [nM] 0% HSA (cAMP, A7R5 rat aortic smooth muscle cells)” value (“EC50 [nM] 0% HSA” for short) in test [1] was determined as 0.06 nM.

B2: peptide of SEQ ID NO: 40 (peptide)
peptide: Ac-IVLSLD[dV]PIKLK([γGlu-C16 diacid])KILLEQEKQKKQREQAETN[Aib]QILAQV-NH2
SMILES: CC[C@H](C)[C@H](NC(C)=O)C(=O)N[C@H](C(=O)N[C@@H](CC(C)C)C(=O)N[C@@H](CO)C(=O)N[C@@H](CC(C)C)C(=O)N[C@@H](CC(=O)O)C(=O)N[C@@H](C(=O)N1CCC[C@H]1C(=O)N[C@H](C(=O)N[C@@H](CCCCN)C(=O)N[C@@H](CC(C)C)C(=O)N[C@@H](CCCCNC(=O)CC[C@H](NC(=O)CCCCCCCCCCCCCCC(=O)O)C(=O)O)C(=O)N[C@@H](CCCCN)C(=O)N[C@H](C(=O)N[C@@H](CC(C)C)C(=O)N[C@@H](CC(C)C)C(=O)N[C@@H](CCC(=O)O)C(=O)N[C@@H](CCC(N)=O)C(=O)N[C@@H](CCC(=O)O)C(=O)N[C@@H](CCCCN)C(=O)N[C@@H](CCC(N)=O)C(=O)N[C@@H](CCCCN)C(=O)N[C@@H](CCCCN)C(=O)N[C@@H](CCC(N)=O)C(=O)N[C@@H](CCCNC(=N)N)C(=O)N[C@@H](CCC(=O)O)C(=O)N[C@@H](CCC(N)=O)C(=O)N[C@@H](C)C(=O)N[C@@H](CCC(=O)O)C(=O)N[C@H](C(=O)N[C@@H](CC(N)=O)C(=O)NC(C)(C)C(=O)N[C@@H](CCC(N)=O)C(=O)N[C@H](C(=O)N[C@@H](CC(C)C)C(=O)N[C@@H](C)C(=O)N[C@@H](CCC(N)=O)C(=O)N[C@H](C(N)=O)C(C)C)[C@@H](C)CC)[C@@H](C)O)[C@@H](C)CC)[C@@H](C)CC)C(C)C)C(C)C
As to B2, in test [1], the “EC50 [nM] 0% HSA” value is 0.59 nM.

Regarding Ac-IVLSLD[dV]PIKLK([γGlu-C14 diacid])KILLEQEKQKKQREQAETNEQILAQV-NH2 [comparative peptide 11 (SEQ ID NO: 85)], the “EC50 [nM] 0% HSA” value in test [1] is 1.01 nM.
